# Laboratory results published in patent publication US7220775B2, “Compound useful for the treatment of neuropathic pain” (H. Lundbeck A/S, priority 2002, dated 2007).
# Columns and labels:
# [1] = molecular target: T1, human dopamine D1 receptor (Homo sapiens, UniProt P21728); assay: Dopamine D1 receptor binding; conditions: Table 10
# T1 construct: purchased BioSignal, Inc. (Montreal, Canada)
# Source text: (§1) Other receptors: Cell membranes expressing human dopamine D1, D2, D4 and rat D3 receptors were purchased through BioSignal, Inc. (Montreal, Canada). Binding assays using the histamine H, receptor; dopamine receptors; and α1A, α1B, and α2 adrenergic receptors may be carried out according to the procedures described in U.S. Pat. No. 5,780,485, the disclosure of which is hereby incorporated by reference in its entirety into this application. Binding assays using the dopamine D5 receptor may be carried out according to the procedures described in U.S. Pat. No. 5,882,855, the disclosure of which is hereby incorporated by reference in its entirety into this application. Binding assays for the human α1D adrenergic receptor may be carried out according to the procedures described in U.S. Pat. No. 6,156,518, the disclosure of which is hereby incorporated by reference in its entirety into this application.
# [2] = molecular target: NE transporter (rNE Uptk) (Rattus norvegicus, UniProt Q9WTR4); assay: Binding at native NE transporter; conditions: Table 7, native transporter
# Experimental: (§2) The binding properties of the compounds of the present invention were evaluated at one or more cloned receptors or native, tissue-derived transporters, using protocols described below.
# (§3) The methods to determine binding affinity at native transporters are described in the following publications: 5HT transporter and NE transporter (Owens et al., 1997), and DA transporter (Javitch et al, 1984).
# [3] = system: NE transporter (rNE Uptk); assay: Binding at native NE transporter; parameters: species or system rat; conditions: Table 8
# Experimental: as §2, §3
# Human 5HT1B receptor = molecular target: T2, Human 5HT1B receptor (Homo sapiens, UniProt P28222); assay: 5HT1B receptor binding ([3H]-serotonin); conditions: Table 8
# T2 construct: expressed in transfected cells
# Experimental: (§4) Human 5HT1B, 5HT1D, 5HT1E, 5HT1F, and 5HT7 Receptors: The cell lysates of LM(tk−) clonal cell line stably transfected with the genes encoding each of these 5HT receptor-subtypes were prepared as described above. Cell membranes were suspended in 50 mM Tris-HCl buffer (pH 7.4 at 37° C.) containing 10 mM MgCl2, 0.2 mM EDTA, 10 µM pargyline, and 0.1% ascorbate. […] Nonspecific binding was determined in the presence of 10 μM serotonin. The bound radioligand was separated by filtration through GF/B filters using a cell harvester.
# Human 5HT2A receptor = molecular target: T3, Human 5HT2A receptor (Homo sapiens, UniProt P28223); assay: 5HT2A receptor binding ([3H]ketanserin); conditions: Table 8
# T3 construct: expressed in transfected cells; host or cells: COS-7 cells, transient, vector pCEXV-3
# Experimental: Human 5HT2A Receptor: The coding sequence of the human 5HT2A receptor was obtained from a human brain cortex cDNA library, and cloned into the cloning site of pCEXV-3 eukaryotic expression vector. This construct was transfected into COS-7 cells by the DEAE-dextran method (Cullen, 1987). Cells were harvested after 72 hours and lysed by sonication in 5 mM Tris-HCl, 5 mM EDTA, pH 7.5. The cell lysates were subjected to centrifugation at 1000 rpm for 5 minutes at 4° C., and the supernatant was subjected to centrifugation at 30,000×g for. 20 minutes at 4° C. The pellet was suspended in 50 mM Tris-HCl buffer (pH 7.7 at room temperature) containing 10 mM MgSO4, 0.5 mM EDTA, and 0.1% ascorbate. The affinity of compounds at 5HT2A receptors were determined in equilibrium competition binding assays using [^3H]ketanserin (1 nM). Nonspecific binding was defined by the addition of 10 μM mianserin. The bound radioligand was separated by filtration through GF/B filters using a cell harvester.
# Human 5HT1F receptor = molecular target: T4, Human 5HT1F receptor (Homo sapiens, UniProt P30939); assay: 5HT1F receptor binding ([3H]-serotonin); conditions: Table 8
# T4 construct: expressed in transfected cells
# Experimental: as §4
# [4] = molecular target: T5, DA transporter (rDA Uptk) (Rattus norvegicus, UniProt P23977); assay: Binding at native DA transporter; conditions: Table 8
# T5 construct: native, tissue-derived transporters; from tissue
# Experimental: as §2, §3
# [5] = molecular target: T6, human dopamine D4 receptor (Homo sapiens, UniProt P21917); assay: Dopamine D4 receptor binding; conditions: Table 10
# T6 construct: purchased BioSignal, Inc. (Montreal, Canada)
# Source text: as §1
# h5HT1A = molecular target: T7, h5HT1A (Homo sapiens, UniProt P08908); assay: 5-HT1A receptor binding (3H-8-OH-DPAT); conditions: Table 8
# T7 construct: expressed in transfected cells; host or cells: COS-7 cells, transient, vector pCEXV-3
# Experimental: 5-HT1A Receptor: The cDNA corresponding to the 5-HT1A receptor open reading frames and variable non-coding 5′- and 3′-regions, was cloned into the eukaryotic expression vector pCEXV-3. These constructs were transfected transiently into COS-7 cells by the DEAE-dextran method (Cullen, 1987), and harvested after 72 hours. Radioligand binding assays were performed as described above for the 5-HT2A receptor, except that ^3H-8-OH-DPAT was used as the radioligand and nonspecific binding was determined by the addition of 10 μM mianserin.
# [6] = molecular target: human dopamine D5 receptor (Homo sapiens, UniProt P21918); assay: Dopamine D5 receptor binding; conditions: Table 10
# Source text: as §1
# [7] = molecular target: T8, human α1D adrenergic receptor (Homo sapiens, UniProt P25100); assay: α1D adrenergic receptor binding; conditions: Table 10
# T8 construct: expressed in transfected cells
# Source text: as §1
# rat D3 receptor = molecular target: T9, rat D3 receptor (Rattus norvegicus, UniProt P19020); assay: Dopamine D3 receptor binding; conditions: Table 10
# T9 construct: purchased BioSignal, Inc. (Montreal, Canada)
# Source text: as §1
# T2 sequence (P28222 whole entry): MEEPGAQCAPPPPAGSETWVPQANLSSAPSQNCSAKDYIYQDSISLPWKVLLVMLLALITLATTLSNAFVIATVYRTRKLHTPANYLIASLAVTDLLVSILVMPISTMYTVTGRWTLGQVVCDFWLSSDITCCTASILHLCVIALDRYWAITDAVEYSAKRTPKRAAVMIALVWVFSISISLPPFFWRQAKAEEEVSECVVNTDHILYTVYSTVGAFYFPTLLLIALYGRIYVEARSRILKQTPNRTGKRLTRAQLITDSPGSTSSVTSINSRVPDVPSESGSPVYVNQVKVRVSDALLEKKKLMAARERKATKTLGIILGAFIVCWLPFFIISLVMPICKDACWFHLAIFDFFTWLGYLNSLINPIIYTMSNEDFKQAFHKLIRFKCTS
# T7 sequence (P08908 whole entry): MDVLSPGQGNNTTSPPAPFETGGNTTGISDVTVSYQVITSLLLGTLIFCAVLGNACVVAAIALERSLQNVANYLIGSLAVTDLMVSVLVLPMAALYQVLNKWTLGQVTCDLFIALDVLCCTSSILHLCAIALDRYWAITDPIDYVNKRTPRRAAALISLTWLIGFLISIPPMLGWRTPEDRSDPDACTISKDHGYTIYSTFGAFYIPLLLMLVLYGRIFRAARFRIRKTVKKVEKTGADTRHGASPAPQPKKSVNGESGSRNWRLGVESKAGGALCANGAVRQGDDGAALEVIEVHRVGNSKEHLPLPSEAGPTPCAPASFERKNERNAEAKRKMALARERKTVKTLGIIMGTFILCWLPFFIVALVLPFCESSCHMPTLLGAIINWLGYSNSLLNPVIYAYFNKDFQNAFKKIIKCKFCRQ
# T9 sequence (P19020 whole entry): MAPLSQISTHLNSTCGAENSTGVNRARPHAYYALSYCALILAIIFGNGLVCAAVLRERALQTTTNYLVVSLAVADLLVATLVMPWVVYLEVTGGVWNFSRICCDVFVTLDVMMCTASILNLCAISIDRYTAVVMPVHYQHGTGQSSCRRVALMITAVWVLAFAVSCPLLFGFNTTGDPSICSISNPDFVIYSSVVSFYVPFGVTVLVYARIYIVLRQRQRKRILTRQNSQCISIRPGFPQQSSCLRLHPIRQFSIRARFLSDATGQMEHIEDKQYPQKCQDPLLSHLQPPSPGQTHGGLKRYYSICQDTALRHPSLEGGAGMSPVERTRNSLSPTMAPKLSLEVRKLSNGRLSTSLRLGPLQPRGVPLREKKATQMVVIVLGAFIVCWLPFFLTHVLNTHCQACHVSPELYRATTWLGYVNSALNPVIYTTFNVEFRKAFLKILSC
# Chain of human dopamine D5 receptor (P21918 whole entry): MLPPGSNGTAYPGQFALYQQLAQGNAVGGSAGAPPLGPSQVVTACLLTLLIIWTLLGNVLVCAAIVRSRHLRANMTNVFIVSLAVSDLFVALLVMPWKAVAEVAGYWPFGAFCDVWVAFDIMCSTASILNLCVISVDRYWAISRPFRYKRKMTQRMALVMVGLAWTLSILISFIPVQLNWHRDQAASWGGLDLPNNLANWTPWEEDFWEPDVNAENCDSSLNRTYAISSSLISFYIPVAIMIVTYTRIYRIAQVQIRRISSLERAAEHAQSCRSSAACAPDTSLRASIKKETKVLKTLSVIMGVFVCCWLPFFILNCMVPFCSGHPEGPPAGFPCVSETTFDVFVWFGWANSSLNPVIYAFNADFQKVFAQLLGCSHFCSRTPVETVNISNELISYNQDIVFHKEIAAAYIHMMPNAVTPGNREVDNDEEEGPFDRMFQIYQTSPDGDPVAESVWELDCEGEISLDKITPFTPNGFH
# T1 sequence (P21728 whole entry): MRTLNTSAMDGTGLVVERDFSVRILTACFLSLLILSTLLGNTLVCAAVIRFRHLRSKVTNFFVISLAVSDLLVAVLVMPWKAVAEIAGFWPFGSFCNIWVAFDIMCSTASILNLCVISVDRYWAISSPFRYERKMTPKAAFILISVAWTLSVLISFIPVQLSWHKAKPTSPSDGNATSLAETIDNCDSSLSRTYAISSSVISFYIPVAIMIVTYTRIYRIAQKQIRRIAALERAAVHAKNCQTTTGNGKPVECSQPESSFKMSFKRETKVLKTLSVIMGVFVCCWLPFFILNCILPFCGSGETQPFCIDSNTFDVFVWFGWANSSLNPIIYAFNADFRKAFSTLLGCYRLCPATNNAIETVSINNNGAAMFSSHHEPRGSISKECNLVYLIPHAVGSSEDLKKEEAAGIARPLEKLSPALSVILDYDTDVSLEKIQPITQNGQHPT
# T8 sequence (P25100 whole entry): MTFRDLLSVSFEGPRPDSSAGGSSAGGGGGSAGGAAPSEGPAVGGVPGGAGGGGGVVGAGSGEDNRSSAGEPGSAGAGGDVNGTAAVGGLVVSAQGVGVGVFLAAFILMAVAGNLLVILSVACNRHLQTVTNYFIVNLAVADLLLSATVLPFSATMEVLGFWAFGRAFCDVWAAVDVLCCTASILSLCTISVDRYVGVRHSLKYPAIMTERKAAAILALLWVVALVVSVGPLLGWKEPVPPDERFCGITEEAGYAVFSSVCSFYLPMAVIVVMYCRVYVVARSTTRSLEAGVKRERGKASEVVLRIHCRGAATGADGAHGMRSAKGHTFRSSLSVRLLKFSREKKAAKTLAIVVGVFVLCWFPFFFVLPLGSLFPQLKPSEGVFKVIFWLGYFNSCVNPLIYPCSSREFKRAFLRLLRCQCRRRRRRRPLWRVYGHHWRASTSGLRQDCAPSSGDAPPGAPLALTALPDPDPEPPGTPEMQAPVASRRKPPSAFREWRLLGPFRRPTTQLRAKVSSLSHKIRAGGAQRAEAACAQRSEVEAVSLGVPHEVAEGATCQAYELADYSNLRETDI
# T6 sequence (P21917 whole entry): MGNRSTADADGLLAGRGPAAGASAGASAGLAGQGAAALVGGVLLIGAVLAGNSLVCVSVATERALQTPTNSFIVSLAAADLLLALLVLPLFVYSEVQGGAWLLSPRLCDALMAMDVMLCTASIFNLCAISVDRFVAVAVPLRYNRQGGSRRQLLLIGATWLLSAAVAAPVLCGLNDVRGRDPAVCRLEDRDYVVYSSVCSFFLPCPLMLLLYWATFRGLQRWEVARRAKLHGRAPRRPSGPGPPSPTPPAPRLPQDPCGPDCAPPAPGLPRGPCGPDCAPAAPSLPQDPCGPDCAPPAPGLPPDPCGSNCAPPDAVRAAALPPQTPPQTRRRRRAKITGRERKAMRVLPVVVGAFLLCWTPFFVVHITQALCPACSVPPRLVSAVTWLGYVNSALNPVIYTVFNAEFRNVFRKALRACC
# T3 sequence (P28223 whole entry): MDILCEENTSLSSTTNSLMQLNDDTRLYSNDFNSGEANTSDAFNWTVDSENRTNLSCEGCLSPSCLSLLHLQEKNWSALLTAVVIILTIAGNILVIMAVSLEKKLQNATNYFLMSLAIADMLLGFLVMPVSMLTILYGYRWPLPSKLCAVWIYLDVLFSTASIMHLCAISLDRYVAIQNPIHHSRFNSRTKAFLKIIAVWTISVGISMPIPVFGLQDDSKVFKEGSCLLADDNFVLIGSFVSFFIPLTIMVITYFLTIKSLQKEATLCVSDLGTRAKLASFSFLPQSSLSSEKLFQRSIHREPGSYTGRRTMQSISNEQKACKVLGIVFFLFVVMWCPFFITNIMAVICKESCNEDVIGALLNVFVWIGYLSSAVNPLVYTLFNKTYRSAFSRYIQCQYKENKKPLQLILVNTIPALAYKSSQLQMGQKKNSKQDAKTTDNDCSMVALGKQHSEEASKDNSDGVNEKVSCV
# T4 sequence (P30939 whole entry): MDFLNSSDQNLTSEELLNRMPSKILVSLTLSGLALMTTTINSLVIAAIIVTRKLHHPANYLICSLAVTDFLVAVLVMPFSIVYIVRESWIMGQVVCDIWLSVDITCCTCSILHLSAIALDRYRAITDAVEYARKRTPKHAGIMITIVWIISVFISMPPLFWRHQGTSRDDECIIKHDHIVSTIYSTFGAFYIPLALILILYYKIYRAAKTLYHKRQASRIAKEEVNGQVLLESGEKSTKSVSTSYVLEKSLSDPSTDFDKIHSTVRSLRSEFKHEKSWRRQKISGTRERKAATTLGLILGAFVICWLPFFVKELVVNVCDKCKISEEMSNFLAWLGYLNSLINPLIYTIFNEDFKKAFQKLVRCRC
# T5 sequence (P23977 whole entry): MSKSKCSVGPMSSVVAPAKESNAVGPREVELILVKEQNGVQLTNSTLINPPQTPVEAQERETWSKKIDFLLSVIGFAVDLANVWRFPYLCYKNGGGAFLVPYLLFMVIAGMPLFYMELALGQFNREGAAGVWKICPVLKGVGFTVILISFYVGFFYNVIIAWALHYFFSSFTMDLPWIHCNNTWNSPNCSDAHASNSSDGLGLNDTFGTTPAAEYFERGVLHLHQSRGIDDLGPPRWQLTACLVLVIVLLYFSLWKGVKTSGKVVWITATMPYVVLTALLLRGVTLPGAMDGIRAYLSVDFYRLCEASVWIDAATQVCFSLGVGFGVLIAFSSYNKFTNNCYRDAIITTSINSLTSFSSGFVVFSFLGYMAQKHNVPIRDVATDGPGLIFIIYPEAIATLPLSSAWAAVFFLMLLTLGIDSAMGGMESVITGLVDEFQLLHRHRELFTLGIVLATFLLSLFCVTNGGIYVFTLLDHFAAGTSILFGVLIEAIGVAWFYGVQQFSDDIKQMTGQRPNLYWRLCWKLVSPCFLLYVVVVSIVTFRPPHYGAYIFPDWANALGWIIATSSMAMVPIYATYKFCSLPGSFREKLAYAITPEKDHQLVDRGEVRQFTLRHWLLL
structure (smiles),measurement,setting,value
"O=C1C(=Nc2cccc(C(F)(F)F)c2)c2ccccc2N1c1ccccc1 [Example 92, 1-PHENYL-3-[[3-(TRIFLUOROMETHYL)PHENYL]IMINO]-1,3-DIHYDRO-2H-INDOL-2-ONE]",selectivity ratio hD1 (Ki hD1 / Ki hGAL3),[1],>100
same,Ki,[2],33.9 µM
same,selectivity ratio rNE Uptk (Ki rNE Uptk / Ki hGAL3),[3],>100
same,selectivity ratio h5HT1B (Ki h5HT1B / Ki hGAL3),Human 5HT1B receptor,>100
same,selectivity ratio h5HT2A (Ki h5HT2A / Ki hGAL3),Human 5HT2A receptor,>100
same,selectivity ratio h5HT1F (Ki h5HT1F / Ki hGAL3),Human 5HT1F receptor,>100
same,selectivity ratio rDA Uptk (Ki rDA Uptk / Ki hGAL3),[4],>100
same,selectivity ratio hD4 (Ki hD4 / Ki hGAL3),[5],>100
same,selectivity ratio h5HT1A (Ki h5HT1A / Ki hGAL3),h5HT1A,>100
same,selectivity ratio hD5 (Ki hD5 / Ki hGAL3),[6],>100
same,selectivity ratio hα1D (Ki hα1D / Ki hGAL3),[7],>100
same,selectivity ratio rD3 (Ki rD3 / Ki hGAL3),rat D3 receptor,>100
